Test results: patent publication US12116348B2, “Substituted benzimidazole compound and composition comprising same” (Shenzhen TargetRx, Inc., priority 2017, dated 2024)

Experiments:
[1] = Metabolic stability evaluation in mouse liver microsomes; format: in vitro ADME; conditions: SD, pH 7.4, mouse liver microsomes 0.5 mg/mL, compound 1 μM; for microsomal CLint at 1 μM: liver intrinsic clearance; for half-life at 1 μM: NADPH, 37° C.
Procedure: (2) Metabolic Stability Evaluation
Microsome assay: mouse liver microsomes: 0.5 mg/mL, Xenotech; coenzyme (NADPH/NADH): 1 mM, Sigma Life Science; magnesium chloride: 5 mM, 100 mM phosphate buffer (pH 7.4).
Preparation of stock solutions: Powder of the example compounds were accurately weighed and dissolved in DMSO to 5 mM respectively.
Preparation of phosphate buffer (100 mM, pH7.4): A pre-prepared 0.5M potassium dihydrogen phosphate (150 mL) was mixed with 0.5M dibasic potassium phosphate (700 mL). The pH of the mixture was adjusted to 7.4 with 0.5M dibasic potassium phosphate solution. The mixture was diluted 5-fold with ultrapure water before use, and magnesium chloride was added to obtain a phosphate buffer (100 mM) containing 100 mM potassium phosphate, 3.3 mM magnesium chloride, pH 7.4.
A NADPH regeneration system solution (containing 6.5 mM NADP, 16.5 mM G-6-P, 3 U/mL G-6-P D, 3.3 mM magnesium chloride) was prepared and placed on wet ice prior to use.
Preparation of stop solution: an acetonitrile solution containing 50 ng/mL propranolol hydrochloride and 200 ng/mL tolbutamide (internal standard). 25057.5 μL of phosphate buffer (pH 7.4) was taken into a 50 mL centrifuge tube, to which 812.5 μL of SD mouse liver microsomes were added, and mixed to obtain a liver microsome dilution with a protein concentration of 0.625 mg/mL.
Incubation of the samples: The stock solutions of the respective compounds were respectively diluted to 0.25 mM with an aqueous solution containing 70% acetonitrile, and used as a working solution, ready for use. 398 μL of the dilutions of mouse liver microsomes were added to 96-well incubation plates (N=2), respectively, and 2 μL of 0.25 mM working solution was added respectively and mixed.
Metabolic stability assay: 300 μL of pre-chilled stop solution was added to each well of 96-well deep well plates and placed on ice as stop plates. The 96-well incubation plates and NADPH regeneration system were placed in a 37° C. water bath, shaken at 100 rpm and pre-incubated for 5 min. 80 μL of incubation solution was taken out from each well of the incubation plates and added to the stop plates, mixed, and replenished with 20 μL of NADPH regeneration system solution as a 0-min sample. 80 μL of NADPH regeneration system solution was added to each well of the incubation plates to start the reaction and start counting. […] Separately, 100 μL of the reaction solutions was taken at 10, 30, and 90 min after the reaction, respectively, added to stop plates, and vortexed for 3 minutes to terminate the reaction. The stop plates were centrifuged at 5000×g at 4° C. for 10 min. 100 μL of the supernatant was added to a 96-well plate to which 100 μL of distilled water was previously added, mixed, and analyzed by LC-MS/MS.
Data analysis: The peak areas of the corresponding compounds and internal standard were detected by LC-MS/MS system, and the ratio of the peak area of the compounds to the internal standard was calculated.

HT-29 cells = experiment: Cytotoxicity experiment: viability of HT-29 cells (CellTiter-Glo); format: cell-based; conditions: Homo sapiens, 72 hours, CTG analysis, read-out: HT-29 cell IC50
Procedure: (1) Cytotoxicity Experiment
The inhibitory effects of the example compounds on the viability of HT-29 cells were tested.
Cell line: HT-29 (cell type: adherent; number of cells/well: 3000; medium: RPMI-1640+10% FBS) was cultured under the condition of 37° C., 5% CO2, and 95% humidity.
Materials and Reagents: Fetal bovine serum (FBS, GBICO, Cat. No. 10099-141), CellTiter-Glo® Luminescent Cell Viability Assay (Promega, Cat. No. G7572), 96-well plate with transparent flat bottom and black walls (Corning®, Cat. No. 3603).
Instruments: SpectraMax multi-label microplate reader, MD, 2104-0010A; CO2 incubator, Thermo Scientific, Model 3100 Series; biosafety cabinet, Thermo Scientific, Model 1300 Series A2; inverted microscope, Olympus, CKX41SF; refrigerator, SIEMENS, KK25E76TI.
• 1) Cell culture and inoculation: i) cells in the logarithmic growth phase were harvested and counted using a […]. The cell viability was determined by trypan blue exclusion method to ensure that the cell viability was greater than 90%; ii) the cell concentration was adjusted; and 90 μL of the cell suspension was added into a 96-well plate, respectively; iii) the cells in the 96-well plate were cultured overnight under the condition of 37° C., 5% CO2 and 95% humidity. • 2) Drug dilution and dosing: i) the 10-fold drug solutions were prepared with a maximum concentration of 100 μM, which was diluted using a 3.16-fold serial gradient dilution, resulting in 9 concentrations. 10 μL of the drug solutions was added to each well of the 96-well plate inoculated with cells; and each drug concentration was tested in triplicate; ii) the cells in the 96-well plate added with drugs were cultured under the condition of 37° C., 5% CO2 and 95% humidity for 72 hours, and then CTG analysis was carried out. • 3) Plate reading at the end point: i) CTG reagent was thawed and the cell plate was equilibrated to room temperature for 30 minutes; ii) equal volume of the CTG solution was added to each well; iii) the cell plate was shaked on the orbital shaker for 5 minutes to lyse the cells; iv) the cell plate was placed at room temperature for 20 minutes to stabilize the cold light signal; v) the cold light values were read.
Data processing: GraphPad Prism 5.0 software was used to analyze the data, and the data was fitted using the non-linear S-curve regression to get a dose-effect curve, and IC50 values were calculated accordingly. Cell viability (%)=(Lum of test drug−Lum of medium control)/(Lum of cell control−Lum of medium control)×100%.

| microsomal CLint at 1 μM [1] | half-life at 1 μM [1] | Compound | IC50 (HT-29 cells) |
| --- | --- | --- | --- |
| 23.6 µL/min/mg | 0.978 h | Cn1cnc2c(F)c(Nc3ccc(Br)cc3Cl)c(C(=O)NOCCO)cc21 [Selumetinib, 6-(4-bromo-2-chloro-phenylamino)-7-fluoro-3-methyl-3H-benzimidazole-5-carboxylic acid (2-hydroxy-ethoxy)-amide, reference compound] | < 0.5 nM |
| 20.9 µL/min/mg | 1.11 h | [2H]C([2H])(O)CONC(=O)c1cc2c(ncn2C([2H])([2H])[2H])c(F)c1Nc1ccc(Br)cc1Cl [A-5, 6-(4-bromo-2-chlorophenylamino)-7-fluoro-3-(methyl-d3)-3H-benzimidazole-5-carboxylic acid (2-hydroxyethoxy-2,2-d2)amide] | < 0.5 nM |
| 19.7 µL/min/mg | 1.17 h | [2H]C([2H])([2H])n1cnc2c(F)c(Nc3ccc(Br)cc3Cl)c(C(=O)NOCCO)cc21 [A-1, 6-(4-bromo-2-chloro-phenylamino)-7-fluoro-3-(methyl-d3)-3H-benzimidazole-5-carboxylic acid (2-hydroxyethoxy)-amide] | < 0.5 nM |
| 19.8 µL/min/mg | 1.17 h | [2H]C([2H])(O)C([2H])([2H])ONC(=O)c1cc2c(ncn2C)c(F)c1Nc1ccc(Br)cc1Cl [A-6, 6-(4-bromo-2-chlorophenylamino)-7-fluoro-3-methyl-3H-benzimidazole-5-carboxylic acid (2-hydroxyethoxy-1,1,2,2-d4)amide] |  |
| 24.6 µL/min/mg | 0.94 h | [2H]C([2H])(O)CONC(=O)c1cc2c(ncn2C)c(F)c1Nc1ccc(Br)cc1Cl [A-4, 6-(4-bromo-2-chlorophenylamino)-7-fluoro-3-methyl-3H-benzimidazole-5-carboxylic acid (2-hydroxyethoxy-2,2-d2)amide] | < 0.5 nM |
